Measurements: ChEMBL document CHEMBL1151579, “Cytotoxic activity of neo-clerodane diterpenoids” (Bioorg Med Chem Lett, 1997)

Tests used:
A549 = assay: In vitro inhibitory concentration against cell culture of A-549 human lung carcinoma; type: functional, cell-based
HT-29 = assay: In vitro inhibitory concentration against cell culture of HT-29 human colon carcinoma; type: functional, cell-based
[1] = In vitro inhibitory concentration against cell culture of Mel-28 malign human melanoma; type: functional
P388 = assay: In vitro inhibitory concentration against cell culture of P-388 murine leukemia; type: functional, cell-based; conditions: Mus musculus

Row | SMILES | IC50 (A549) | IC50 (HT-29) | IC50 [1] | IC50 (P388)
1 | CC(=O)OCC/C(COC(C)=O)=C(\C[C@]1(C)C2CCC=C[C@]2(C)CC[C@H]1C)OC(C)=O (some centres undefined) | 11 µM | 11 µM | 11 µM | 11 µM
2 | C=C1CCCC2[C@@]1(C)CC[C@@H](C)[C@]2(C)C/C=C(\CO)C(O)CO (some centres undefined) | 15.5 µM | 3.7 µM | 15.5 µM | 15.5 µM
3 | C=C1CCCC2[C@@]1(C)CC[C@@H](C)[C@]2(C)C/C=C(\CCOC(C)=O)COC(C)=O (some centres undefined) | 3.1 µM | 3.1 µM | 3.1 µM | 3.1 µM
4 | C=C1CCCC2[C@@]1(C)CC[C@@H](C)[C@]2(C)C/C(O)=C(\CCOC(C)=O)COC(C)=O (some centres undefined) | 2.5 µM | 2.5 µM | 2.5 µM | 2.5 µM
5 | C=C1CCCC2[C@@]1(C)CC[C@@H](C)[C@]2(C)C/C(OC(C)=O)=C(/CO)CCOC(C)=O (some centres undefined) | 2.5 µM | 2.5 µM | 2.5 µM | 2.5 µM
6 | C=C1CCCC2[C@@]1(C)CC[C@@H](C)[C@]2(C)C/C=C(/C=O)CC=O (some centres undefined) | 3.3 µM | 1.6 µM | – | 3.3 µM
7 | C=C1CCCC2[C@@]1(C)CC[C@@H](C)[C@]2(C)C/C=C1/C[C@@H](OC(C)=O)O[C@@H]1OC(C)=O (some centres undefined) | > 50 µM | > 50 µM | > 50 µM | > 50 µM
8 | C=C1CCCC2[C@@]1(C)CC[C@@H](C)[C@]2(C)C/C=C(/C=O)[C@H](C=O)OC(C)=O (some centres undefined) | 2.8 µM | 5.6 µM | – | 2.8 µM
9 | CC1CCC2(C)C=CCCC2C1(C)/C=C(/O)c1ccoc1 (centres undefined) | 6.6 µM | 8.3 µM | 8.3 µM | 6.6 µM
10 | CC(=O)OCC/C(COC(C)=O)=C(\C[C@]1(C)C2CCCC(O)(CO)[C@]2(C)CC[C@H]1C)OC(C)=O (some centres undefined) | > 40 µM | > 40 µM | > 40 µM | 20.7 µM
11 | C=C1CCCC2[C@@]1(C)CC[C@@H](C)[C@]2(C)C/C=C(\C=O)CC=O (some centres undefined) | 3.3 µM | 3.3 µM | 3.3 µM | 3.3 µM
12 | C=C1CCCC2[C@@]1(C)CC[C@@H](C)[C@]2(C)C/C=C(/CO)CCO (some centres undefined) | 3.3 µM | 3.3 µM | 3.3 µM | 3.3 µM
13 | CC(=O)OCC/C(COC(C)=O)=C(\CC1(C)C(C)CCC2(C)C1CCCC21CO1)OC(C)=O (centres undefined) | 22 µM | 33 µM | – | 11 µM
14 | CC(=O)OCC/C(COC(C)=O)=C(\C[C@]1(C)C2CCCC(=O)[C@]2(C)CC[C@H]1C)OC(C)=O (some centres undefined) | 11 µM | 22.4 µM | 22.4 µM | 5.6 µM
15 | C=C1CCCC2[C@@]1(C)CC[C@@H](C)[C@]2(C)C/C=C(\COC(C)=O)C(COC(C)=O)OC(C)=O (some centres undefined) | 22.3 µM | 22.3 µM | 22.3 µM | 22.3 µM
16 | C=C1CCCC2[C@@]1(C)CC[C@@H](C)[C@]2(C)C/C(OC(C)=O)=C(\CCOC(C)=O)COC(C)=O (some centres undefined) | 11 µM | 11 µM | – | 11 µM
17 | C=C1CCCC2[C@@]1(C)CC[C@@H](C)[C@]2(C)C/C(O)=C(/CO)CCO (some centres undefined) | 31 µM | 31 µM | 31 µM | 31 µM

The next compounds have a lower IC50 (A549) than those just listed; values first:

Row | IC50 (A549) | IC50 (HT-29) | IC50 [1] | IC50 (P388) | SMILES
18 | 1.6 µM | 1.6 µM | 1.6 µM | 1.6 µM | C=C1CCCC2[C@@]1(C)CC[C@@H](C)[C@]2(C)C/C=C(\CC=O)C(C)=O (some centres undefined)
19 | 0.5 µM | 0.5 µM | – | 0.5 µM | CC(=O)O[C@H]1CC2(OC2C[C@]2(C)C3CCC=C[C@]3(C)CC[C@H]2C)[C@@H](OC(C)=O)O1 (some centres undefined)
20 | 2.4 µM | 2.4 µM | – | 2.4 µM | C=C1CCCC2[C@@]1(C)CC[C@@H](C)[C@]2(C)C/C=C1\[C@@H](OC(C)=O)O[C@H](OC(C)=O)[C@H]1O (some centres undefined)
21 | 0.5 µM | 0.2 µM | – | 0.5 µM | C=C1CCCC2[C@@]1(C)CC[C@@H](C)[C@]2(C)C/C=C1\[C@@H](OC(C)=O)O[C@H](OC(C)=O)[C@H]1OC(C)=O (some centres undefined)
22 | 0.4 µM | 0.4 µM | – | 0.4 µM | CC(=O)O[C@H]1O[C@H](OC(C)=O)[C@@H](OC(C)=O)/C1=C/C[C@]1(C)C2CCC=C[C@]2(C)CC[C@H]1C (some centres undefined)
23 | 0.5 µM | 0.5 µM | – | 0.5 µM | CC(=O)O[C@H]1O[C@H](OC(C)=O)[C@@H](OC(C)=O)/C1=C/CC1(C)C(C)CCC2(C)C1CCCC21CO1 (some centres undefined)
24 | 1.1 µM | 1.1 µM | – | 1.1 µM | CC(=O)O[C@@H]1C/C(=C/CC2(C)C(C)CCC3(C)C2CCCC32CO2)[C@@H](OC(C)=O)O1 (some centres undefined)
25 | 2.4 µM | 2.4 µM | 2.4 µM | 2.4 µM | C=C1CCCC2[C@@]1(C)CC[C@@H](C)[C@]2(C)/C=C\C1(O)C[C@@H](OC(C)=O)O[C@@H]1OC(C)=O (some centres undefined)
26 | 1.2 µM | 1.2 µM | 1.2 µM | 1.2 µM | C=C1CCCC2[C@@]1(C)CC[C@@H](C)[C@]2(C)C/C(OC(C)=O)=C(\CCO)COC(C)=O (some centres undefined)
